According to PubChem BioAssay (NCI):
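In this assay, cells in 96-well plates receive the compound at five concentrations for 48 hours. Endpoints are linearly interpolated between the surrounding concentrations. GI50 is the concentration that inhibits growth by half. TGI marks complete inhibition of growth.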

Legend:
Experiment in all cases: NCI tumour cell line growth inhibition, 48 h
EKVX NSCLC = system: EKVX NSCLC
K-562 leukemia = system: K-562 leukemia
MALME-3M melanoma = system: MALME-3M melanoma
SK-MEL-5 melanoma = system: SK-MEL-5 melanoma
NCI-H226 lung = system: NCI-H226 lung
OVCAR-5 ovarian = system: OVCAR-5 ovarian
CAKI-1 renal = system: CAKI-1 renal
SNB-75 CNS = system: SNB-75 CNS
HCC-2998 colon = system: HCC-2998 colon
786-0 renal = system: 786-0 renal
A498 renal = system: A498 renal
SF-268 CNS = system: SF-268 CNS
KM12 colon = system: KM12 colon
A549 NSCLC = system: A549 NSCLC
NCI/ADR-RES ovarian = system: NCI/ADR-RES ovarian
RPMI-8226 leukemia = system: RPMI-8226 leukemia
SR leukemia = system: SR leukemia
MCF7 breast = system: MCF7 breast
PC-3 prostate = system: PC-3 prostate
RXF 393 renal = system: RXF 393 renal
MDA-MB-435 = system: MDA-MB-435
SF-539 CNS = system: SF-539 CNS
IGROV1 ovarian = system: IGROV1 ovarian
BT-549 breast = system: BT-549 breast
SK-OV-3 ovarian = system: SK-OV-3 ovarian
CCRF-CEM leukemia = system: CCRF-CEM leukemia
MDA-MB-231 breast = system: MDA-MB-231 breast
NCI-H23 lung = system: NCI-H23 lung
SK-MEL-28 melanoma = system: SK-MEL-28 melanoma

**Q.** What does the source list for `C=C(C)[C@@H]1CC[C@]2(C)[C@H](CC[C@@H]3[C@@H]([C@@](C)(O)CCC=C(C)C)CC[C@]32C)[C@@]1(C)CCC(=O)N1CCN(C)CC1`?
**A.** GI50 (EKVX NSCLC): 11.6 µM; TGI (EKVX NSCLC): 23.9 µM; GI50 (K-562 leukemia): 4.26 µM; TGI (K-562 leukemia): 24.1 µM; GI50 (MALME-3M melanoma): 10.7 µM; TGI (MALME-3M melanoma): 23.6 µM; GI50 (SK-MEL-5 melanoma): 6.97 µM; TGI (SK-MEL-5 melanoma): 19.6 µM; GI50 (NCI-H226 lung): 12.9 µM; TGI (NCI-H226 lung): 31.7 µM; GI50 (OVCAR-5 ovarian): 14 µM; TGI (OVCAR-5 ovarian): 27.4 µM; GI50 (CAKI-1 renal): 12.4 µM; TGI (CAKI-1 renal): 24.9 µM; GI50 (SNB-75 CNS): 11.3 µM; TGI (SNB-75 CNS): 25 µM; GI50 (HCC-2998 colon): 13.5 µM; TGI (HCC-2998 colon): 26.3 µM; GI50 (786-0 renal): 10.3 µM; TGI (786-0 renal): 23.8 µM; GI50 (A498 renal): 13.2 µM; TGI (A498 renal): 26.6 µM; GI50 (SF-268 CNS): 13.1 µM; TGI (SF-268 CNS): 30.1 µM; GI50 (KM12 colon): 10.5 µM; TGI (KM12 colon): 23.6 µM; GI50 (A549 NSCLC): 9.65 µM; TGI (A549 NSCLC): 24.2 µM; GI50 (NCI/ADR-RES ovarian): 12.1 µM; TGI (NCI/ADR-RES ovarian): 25 µM; GI50 (RPMI-8226 leukemia): 5.99 µM; TGI (RPMI-8226 leukemia): 28.6 µM; GI50 (SR leukemia): 3.39 µM; TGI (SR leukemia): 21.6 µM; GI50 (MCF7 breast): 7 µM; TGI (MCF7 breast): 21.1 µM; GI50 (PC-3 prostate): 3.77 µM; TGI (PC-3 prostate): 15.8 µM; GI50 (RXF 393 renal): 5.25 µM; TGI (RXF 393 renal): 16.4 µM; GI50 (MDA-MB-435): 12.2 µM; TGI (MDA-MB-435): 26.5 µM; GI50 (SF-539 CNS): 9.44 µM; TGI (SF-539 CNS): 21.7 µM; GI50 (IGROV1 ovarian): 12.7 µM; TGI (IGROV1 ovarian): 27.4 µM; GI50 (BT-549 breast): 11.2 µM; TGI (BT-549 breast): 24.1 µM; GI50 (SK-OV-3 ovarian): 12.9 µM; TGI (SK-OV-3 ovarian): 26.4 µM; GI50 (CCRF-CEM leukemia): 11.6 µM; TGI (CCRF-CEM leukemia): 37.6 µM; GI50 (MDA-MB-231 breast): 13.4 µM; TGI (MDA-MB-231 breast): 26.7 µM; GI50 (NCI-H23 lung): 13.7 µM; TGI (NCI-H23 lung): 27.5 µM; GI50 (SK-MEL-28 melanoma): 12.9 µM; TGI (SK-MEL-28 melanoma): 25.8 µM
